Experiments:
Assay type in all cases: in vivo
[1] = system: carrageenan-induced rat paw swelling (角叉菜胶致大鼠足肿胀模型); experiment: carrageenan-induced paw swelling model in rats; conditions: intragastric; for 1 h swelling degree / 3 h swelling degree / 5 h swelling degree / 7 h swelling degree: once daily for 3 days; for 1 h swelling degree: 1 h after carrageenan, control 0.41±0.12; for 3 h swelling degree: 3 h after carrageenan, control 0.83±0.13; for 5 h swelling degree: 5 h after carrageenan, control 0.70±0.12; for 7 h swelling degree: 7 h after carrageenan, control 0.63±0.11
[2] = system: rat AA model (大鼠AA模型); experiment: rat AA model (FCA-induced primary inflammation); conditions: for 6 h swelling degree / 12 h swelling degree / 18 h swelling degree / 24 h swelling degree: intragastric from 3 days before FCA; for 6 h swelling degree: 6 h after FCA, control 0.49±0.06; for 12 h swelling degree: 12 h after FCA, control 0.54±0.07; for 18 h swelling degree: 18 h after FCA, control 0.64±0.07; for 24 h swelling degree: 24 h after FCA, control 0.50±0.06
[3] = system: xylene-induced mouse ear swelling (二甲苯所致小鼠耳肿胀模型); experiment: xylene-induced ear swelling model in mice; conditions: intragastric
[4] = 25, 50, 100 mg/kg, intragastric

28-O-β-D-葡萄糖基化远志皂苷
1 h swelling degree ([1]; 25 mg/kg (low dose)): 0.33 ± 0.05 mL | 3 h swelling degree ([1]; 25 mg/kg (low dose)): 0.64 ± 0.16 mL | 5 h swelling degree ([1]; 25 mg/kg (low dose)): 0.48 ± 0.13 mL | 7 h swelling degree ([1]; 25 mg/kg (low dose)): 0.33 ± 0.07 mL | 1 h swelling degree ([1]; 50 mg/kg (medium dose)): 0.17 ± 0.05 mL | 3 h swelling degree ([1]; 50 mg/kg (medium dose)): 0.45 ± 0.12 mL | 5 h swelling degree ([1]; 50 mg/kg (medium dose)): 0.39 ± 0.07 mL | 7 h swelling degree ([1]; 50 mg/kg (medium dose)): 0.19 ± 0.05 mL | 1 h swelling degree ([1]; 100 mg/kg (high dose)): 0.11 ± 0.05 mL | 3 h swelling degree ([1]; 100 mg/kg (high dose)): 0.37 ± 0.13 mL | 5 h swelling degree ([1]; 100 mg/kg (high dose)): 0.31 ± 0.08 mL | 7 h swelling degree ([1]; 100 mg/kg (high dose)): 0.16 ± 0.09 mL | concentration dependence of inhibition of rat paw swelling ([1]; 25, 50, 100 mg/kg): 具有一定的浓度依赖性 | inhibition of carrageenan-induced rat paw swelling ([1]; 25, 50, 100 mg/kg): 有抑制作用 | 6 h swelling degree ([2]; 25 mg/kg (low dose)): 0.45 ± 0.05 mL | 12 h swelling degree ([2]; 25 mg/kg (low dose)): 0.51 ± 0.16 mL | 18 h swelling degree ([2]; 25 mg/kg (low dose)): 0.61 ± 0.13 mL | 24 h swelling degree ([2]; 25 mg/kg (low dose)): 0.46 ± 0.15 mL | 6 h swelling degree ([2]; 50 mg/kg (medium dose)): 0.28 ± 0.05 mL | 12 h swelling degree ([2]; 50 mg/kg (medium dose)): 0.30 ± 0.08 mL | 18 h swelling degree ([2]; 50 mg/kg (medium dose)): 0.33 ± 0.06 mL | 24 h swelling degree ([2]; 50 mg/kg (medium dose)): 0.27 ± 0.07 mL | 6 h swelling degree ([2]; 100 mg/kg (high dose)): 0.15 ± 0.06 mL | 12 h swelling degree ([2]; 100 mg/kg (high dose)): 0.19 ± 0.08 mL | 18 h swelling degree ([2]; 100 mg/kg (high dose)): 0.30 ± 0.07 mL | 24 h swelling degree ([2]; 100 mg/kg (high dose)): 0.25 ± 0.06 mL | concentration dependence of inhibition of primary inflammation in AA rats [2, 4]: 具有一定的浓度依赖性 | inhibition of FCA-induced primary inflammation in AA rats [2, 4]: 有明显的抑制作用 | inhibition rate ([3]; 25 mg/kg (low dose), once daily for 3 days, ear swelling vs control, P<0.05): 6.5% | inhibition rate ([3]; 50 mg/kg (medium dose), once daily for 3 days, ear swelling vs control, P<0.01): 39.1% | inhibition rate ([3]; 100 mg/kg (high dose), once daily for 3 days, ear swelling vs control, P<0.01): 48.4% | inhibition of xylene-induced acute inflammation of mouse auricle ([3]; 25, 50, 100 mg/kg): 能抑制

COc1ccc2cc([C@H](C)C(=O)O)ccc2c1 [萘普生, reference compound]
1 h swelling degree ([1]; 30 mg/kg): 0.08 ± 0.07 mL | 3 h swelling degree ([1]; 30 mg/kg): 0.21 ± 0.05 mL | 5 h swelling degree ([1]; 30 mg/kg): 0.13 ± 0.08 mL | 7 h swelling degree ([1]; 30 mg/kg): 0.12 ± 0.07 mL | 6 h swelling degree ([2]; 30 mg/kg): 0.16 ± 0.09 mL | 12 h swelling degree ([2]; 30 mg/kg): 0.22 ± 0.07 mL | 18 h swelling degree ([2]; 30 mg/kg): 0.29 ± 0.08 mL | 24 h swelling degree ([2]; 30 mg/kg): 0.28 ± 0.06 mL | inhibition at 45 mg/kg ([3]; Mus musculus, po, 72 h, 45 mg/kg, once daily for 3 days, ear swelling vs control, P<0.01, read-out: inhibition rate): 45.7%

— patent CN103739655A, “28-O-β-D-葡萄糖基化远志皂苷、其制备方法及用途” (Individual, priority 2013, dated 2014)
